Data: patent US20220243177A1, “METHODS OF CULTURING QUIESCENT HEMATOPOIETIC STEM CELLS AND TREATMENT METHODS” (priority 2019, published 2022)

Tests used:
HSCs of treated mice = assay: In vivo glycolytic inhibition; set-up: species or system mouse
Procedure: In vivo Glycolytic Inhibition. To assess the effect of inhibition of glycolysis on MMP in HSCs, mice received intraperitoneal injections of either PBS or 2-DG 750 mg/kg every other day for 6 days after which total BM cells […] cells were isolated and MMP analyzed by flow cytometry in HSCs.

[1] = test system: MMP-low and MMP-high HSCs; assay: LT-HSCs maintenance assay (viability, DAPI exclusion); format: cell-based
Procedure: LT-HSCs Maintenance Assay: FACS-purified MMP-low and MMP-high HSCs cells were cultured in serum-free Stemspan medium supplemented with SCF (10 ng/mL) and TPO (20 ng/mL), cultured as single or 1,000 yells or 2,000 cells/well, and treated with ConA (10-100 nM), or 2-Deoxy-Glucose (2-DG; 5-60 mM), α-Cyano-4-hydroxycinnamic acid (CHC, 10 mM), or 0.5% DMSO, incubated at 37° C. for the indicated time. Cells were then washed twice in PBS, re-suspended in PBS containing 1 μg/ml DAPI, and analyzed by flow cytometry after DAPI exclusion.

[2] = test system: MMP-low and MMP-high LT-HSCs transplanted into lethally irradiated mice; format: in vivo
Procedure: Competitive In Vivo Long-Term Reconstitution Assay: MMP-low and MMP-high HSCs (LSKCD150^+CD48^−, LT-HSC; MMP^low/high) were FACS purified from CD45.1 mice and transplanted at the indicated dose of test cells with 2×10^5 CD45.2 bone marrow cells into lethally irradiated CD45.2 recipients (12 Gy as a split dose, 6.5 and 5.5 Gy, 4 hours apart). Donor (CD45.1) and recipient (CD45.2) mice were 8-12 weeks old. HSC frequency was determined by the limiting dilution assay (Hu & Smith, “ELDA: Extreme Limiting Dilution Analysis for Comparing Depleted and Enriched Populations in Stem Cell and Other Assays,” J. Immunol. Methods 347:7 0-78 (2009), which is hereby incorporated by reference in its entirety) based on the number of mice with […] reconstitution (CD45.1) at 16 weeks.
To assay the effect of glycolytic inhibition of HSCs in a competitive in vivo long-term reconstitution assay: FACS-sorted MMP-low and MMP-high LT-HSCs (CD45.1) were mixed with 2×10^5 CD45.2 total bone marrow cells and injected into lethally irradiated CD45.2 recipients. After 2 days mice were divided into four groups, MMP-low and MMP-high groups treated with PBS or 2-Deoxy-Glucose (2-DG, 1000 mg/kg) every other day for 30 days. Reconstitution of donor CD45.1 cells and lineage distribution were monitored monthly by staining blood cells with antibodies against CD45.1, CD4, CD8 (T), B220 (B), CD11b and Gr-1 (myeloid) cells. For secondary transplantations, 2×10^6 BM cells from primary recipients were transplanted into lethally irradiated secondary recipients. Donor CD45.1 cells contribution and lineage distribution were tracked from the peripheral blood by flow cytometry.

HSCs (LSK CD150+CD48-) = assay: Mitochondrial membrane potential (TMRE) by flow cytometry; format: cell-based, mouse
Procedure: To measure mitochondrial membrane potential (“MMP”), Tetramethylrhodamine ethyl ester perchlorate (“TMRE”, 100 nM), which specifically accumulates within the mitochondrial matrix of live cells, was used in accordance with the manufacturer's instructions. In brief, cells were stained with the probe at 37° C. for 15 minutes post antibody staining, followed by washing and flow cytometry analysis or FACS purification. Probe responsiveness to MMP changes were tested using controls carbonyl cyanide 3-chlorophenylhydrazone (“CCCP”) and oligomycin, which decreased and increased fluorescence of TMRE respectively. MMP-low and MMP-high thresholds were determined as the lowest and highest 25% TMRE intensity HSCs. Reactive oxygen species (“ROS”) were measured using chloromethyl-dichlorodihydrofluorescein diacetate (“CM-H2DCFDA”) fluorescent probe as described in Rimmele et al., “Mitochondrial Metabolism in Hematopoietic Stem Cells Requires Functional FOXO3,”EMBO Rep. 16: 1164-1176 (2015); Yalcin et al., “ROS-Mediated Amplification of AKT/mTOR Signalling Pathway Leads to Myeloproliferative Syndrome in Foxo3(-/-) Mice,” EMBO J. 29: 4118-4131 (2010); and Yalcin et al., “Foxo3 Is Essential for the Regulation of Ataxia Telangiectasia Mutated and Oxidative Stress-mediated Homeostasis of Hematopoietic Stem Cells,” J. Biol. Chem. 283: 25692-25705 (2008), which are hereby incorporated by reference in their entirety. Flow cytometry acquisition was performed on the BD LSRII, while cell sorting was performed on the BD Influx. All flow cytometry analyses and quantification were done using FlowJo 10 (Treestar).

[3] = test system: MMP-low and MMP-high HSCs; assay: Glucose uptake assay (2NBDG); format: cell-based, mouse; conditions: STF-31 (10, 20 μM), 18 hours
Procedure: Glucose Uptake Assay: For measurement of glucose uptake, freshly FACS-purified MMP-low and MMP-high HSCs (at least 2,000 cells pooled in average from 8 mice) were cultured immediately in […] of glucose, glutamine, pyruvate free medium containing 100 or 200 μM 2-(n-(7-nitrobenz-2-oxa-1,3-diazol-4-yl amino)-2-deoxyglucose (2-NBD-Glucose, 2NBDG) for 2 hours. Cells were then washed multiple times in PBS, re-suspended in PBS containing 1 μg/ml DAPI, and analyzed by flow cytometry for 2-NBD glucose fluorescence in the FITC channel. In some experiments cells were cultured in StemSpan medium (StemCell Technology) supplemented with SCF (100 ng/ml) and TPO (20 ng/ml), treated with or without STF-31 ([…]), ConA (25, 50 nM), dimethyl alpha ketoglutarate (MOG, 1 mM), methyl pyruvate (MP, 1 mM) or DMSO, incubated at 37° C. in a humidified atmosphere with 5% CO2 for 6 or 18 hours before removing culture medium from each well, washing extensively and adding […] of glucose, glutamine, pyruvate free medium containing […] of 2 NBDG for 2 hours before washing cells multiple times in PBS and analyzing by flow cytometry. Quantification of 2NBDG uptake was measured by the geometric mean fluorescence intensity (“MFI”) as well as % of 2NBDG^+ cells.

[4] = test system: MMP-low and MMP-high HSCs; assay: Autophagic vacuole formation / lysosomal localization of mitochondria (confocal immunofluorescence); format: cell-based, mouse; set-up: number of autolysosomes (LC3 co-localization with LAMP1) / co-localization of TOM20 with LAMP1 in MMP-low and MMP-high HSCs: dose or concentration left out as unconfirmed
From the text: Immunofluorescence Staining, Imaging, and Analysis—Super Resolution Confocal Microscopy: Images were acquired with a Zeiss LSM 880 confocal microscope equipped with Airyscan Super Resolution Imaging module, using a 100×/1.46 Alpha Plan Apochromat objective lens (Zeiss MicroImaging, Jena, Germany) with “optimal” (Nyquist) XY scaling. Z stacks through the entire cell were acquired at an […] (at least 20 optical sections) using a pixel dwell time of >50 microseconds and field dimensions of […] (20 MMP-low and 20 MMP-high HSCs analyzed). This was followed by Airyscan image processing (set at auto but rarely over 6.2) and analyses using ZEN image acquisition and processing software (ZEN blue/black). Maximum intensity projections shown in the figures were also obtained using ZEN Blue software.
Lysosomal Localization of Mitochondria. FACS-sorted MMP-low and MMP-high HSCs (LSKCD150^+CD48^-MMP-low/-high) were treated with DMSO control or leupeptin […] for 4 hours. HSCs were then fixed and imaged for TOM20 (mitochondria) and LAMP1 (lysosomes).
Autophagic Vacuole Formation. Accumulation of autophagy substrates, Translocase of outer membrane 20 (TOM20) or Map11c3a (LC3), was determined in the presence of amino acid-containing (DMSO) or -starved amino acid-depleted media, v-ATPase inhibitor concanamycin A (ConA 40nM), inhibitor of autophagosome-autolysosome fusion chloroquine (CQ, […]), or protease inhibitor, leupeptin […] following guidelines outlined for study of autophagy (Klionsky et al., “Guidelines for the Use and Interpretation of Assays for Monitoring Autophagy (3rd Edition),” Autophagy 12(1): 1-222 (2016) and Martinez-Lopez et al., “Autophagy Proteins Regulate ERK Phosphorylation,” Nat. Commun. 4: 2799 (2013), which are hereby incorporated by reference in their entirety). In brief, FACS-sorted
MMP-low and MMP- high HSCs were cultured in the presence or absence of indicated inhibitors for 4, 5, or 18 hours following which cells were subjected to immunofluorescence assays for TOM20, LC3 and/or LAMP1 or LAMP2 as described above. Analyses were performed to quantify the turnover of indicated protein in lysosomes by evaluating the accumulation of TOM20 or LC3 in the presence versus absence of an inhibitor. TOM20 and LC3 flux were determined by subtracting the colocalized value of inhibitor-untreated TOM20 or LC3 with LAMP1 from corresponding inhibitor-treated values. Images were captured using a Zeiss LSM880 Airyscan confocal microscope using 100 X objectives (Leica), and percentage colocalization was calculated using the JACoP plugin (NIH ImageJ).
Mitochondrial and Lysosome Morphology: Freshly isolated HSCs were analyzed for mitochondrial morphology. Each individual HSC (150 total) was analyzed by using Arivis Vision 4D software and classified as either fragmented or not fragmented in accordance with number of surfaces. Cells that fulfilled the definition of ‘fragmented’ contained 3 or more individual mitochondrial surfaces (Kask et al., “Fluorescence-intensity Distribution Analysis and Its Application in Biomolecular Detection Technology,” Proc. Natl. Acad. Sci. USA 96(24): 13756-13761 (1999), which is hereby incorporated by reference in its entirety). Lysosomes' fluorescence intensity or area profiling was calculated using ImageJ software enabling the detection of fluorescently labeled […] boundaries (lysosomal marker LAMP1), as reflected by sharp increases or decreases in fluorescence intensity. Channels displaying fluorescence for either mitochondria or lysosomes were thresholded with the IsoData option to delimit the boundaries of mitochondrial networks and lysosome morphology. The resulting outlines were measured using the analyzed particles option to determine the size of distinct particles representing mitochondrial networks or lysosomes. More than 50 cells/condition/experiment were analyzed for lysosomes. […]

[5] = recipients treated with 2-DG 1,000 mg/kg every other day for 30 days, after 4 months

`O=CC[C@@H](O)[C@H](O)[C@H](O)CO` [2-DG, 2-Deoxy D-Glucose] was tested, and the “cellular viability after in vivo treatment” value (HSCs of treated mice; 2-DG 750 mg/kg every other day for 6 days) was “did not have much of an effect”, the “overall MMP levels in long-term HSCs” value (HSCs of treated mice; 2-DG 750 mg/kg every other day for 6 days, intraperitoneal) was “slightly but significantly reduced” and the “glucose uptake in HSCs with the highest MMP levels” value (HSCs of treated mice; in vivo 2-DG, 6 days) was “reduced glucose uptake”. For the same compound, the “effect on MMP-low HSCs (viability)” value ([1]; 2-DG 50 mM, 12 hours) was “did not have much of an effect”, the “death of MMP-high HSCs after 24 h” value ([1]; 2-DG 50 mM, 24 h, not in MMP-low) was “even more pronounced” and the “MMP-high HSCs died” value ([1]; 2-DG 50 mM, within 12 hours) was “over 60%”. The “lineage output in recipients of MMP-high HSCs” value ([2]; 2-DG-treated recipients) was “balanced production of blood”, the “systemic effect in the blood of transplanted mice” value ([2]; long-term (up to 16 weeks), normal diet) was “no systemic effect was detected” and the “enhancement of in vivo competitive repopulation ability of MMP-high HSCs” value [2, 5] was “over 70 fold”. For the same compound, the “in vivo competitive repopulation ability of MMP-low HSCs” value [2, 5] was “only subtle effects”.

With `N#CC(C#N)=NNc1cccc(Cl)c1` [CCCP, carbonyl cyanide 3-chlorophenylhydrazone] the “fluorescence of TMRE (probe responsiveness control)” value (HSCs (LSK CD150+CD48-)) was “decreased”.

In the case of `N#CC(=Cc1ccc(O)cc1)C(=O)O` [CHC, a-cyano-4-hydroxycinnamate], the “decrease of survival in MMP-high HSCs” value ([1]; 10 mM CHC, 6 hours) is reported as 80% and the “effect on survival of MMP-low HSCs” value ([1]; 10 mM CHC, 6 hours) is reported as “negligible effect”.

With `CC(C)(C)c1ccc(S(=O)(=O)NCc2ccc(C(=O)Nc3cccnc3)cc2)cc1` [Glut1 inhibitor, STF-31] the “glucose uptake in MMP-high HSCs” value [3] was “decreased glucose uptake”.

For `COc1ccc(CCN(C)CCCC(C#N)(c2ccc(OC)c(OC)c2)C(C)C)cc1OC` (stereo not shown) [Verapamil], the “TMRE levels or proportion of MMP-low HSCs” value (HSCs (LSK CD150+CD48-); Verapamil 25 μM, 50 μM, MRP inhibition) was “did not modulate significantly”.

With `CC(=O)N[C@@H](CC(C)C)C(=O)N[C@@H](CC(C)C)C(=O)N[C@H](C=O)CCCNC(=N)N` [leupeptin] the “co-localization of TOM20 with LAMP1 in MMP-low and MMP-high HSCs” value ([4]; 4 h) was “enhanced similarly”, the “increase in LC3-positive puncta, MMP-high HSCs” value ([4]; 4 h) was 3.6 fold and the “increase in LC3-positive puncta, MMP-low HSCs” value ([4]; 4 h) was 1.6 fold. For the same compound, the “number of autolysosomes (LC3 co-localization with LAMP1)” value ([4]; 4 h) was “greater number of autolysosomes”, the “autolysosomal degradation (colocalization of LAMP1 with LC3)” value ([4]; ConA 40 nM, leupeptin 100 mM, chloroquine 40 mM, 18 hours, MMP-low and MMP-high HSCs) was “dramatically prevented autolysosomal degradation” and the “size of lysosomes in HSCs” value ([4]; leupeptin, more evident in MMP-high HSCs) was “further increased the size of lysosomes”.

`CC[C@H]1/C=C/C=C/C[C@@H](C)[C@H](O)[C@@](C)(O)C(=O)[C@@H](C)[C@H](O)[C@@H](C)C(=O)[C@@H](C)[C@H](O)[C@@H](C)/C=C/C(=O)O[C@@H]2[C@H](C)[C@H](CC1)O[C@]1(CC[C@H](C)[C@H](C[C@@H](C)O)O1)[C@H]2C` [oligomycin] was tested, and the “fluorescence of TMRE (probe responsiveness control)” value (HSCs (LSK CD150+CD48-)) was “increased”.
